Assay results as given in patent US20220289686A1, “COMPOSITIONS OF NRF2 INHIBITING AGENTS AND METHODS OF USE THEREOF” (Washington University, priority 2021, published 2022).
Read-outs that look alike come from different tables or passages of the source.

Tests used:
Assay type in all cases: cell-based
[1] = system: NRF2 protein; experiment: Western blot analysis of NRF2 protein abundance and downstream targets in cell lines; details: H1299, 10 ng/ml FA, 24 hr
[2] = system: NRF2 protein; experiment: as above; details: western blot; 24-48 hours; PYR 10 μM, analogs 1 μM (104 in HEK293T 10 μM), MTX and PEM 0.1 μM, CG 10 μM
Method: Western Blots: KYSE70, HEK293T cells were plated and 24 hours later treated with compounds (see figure legends for details). Either at 24 or 48 hours later, cells were scrapped in RIPA buffer (0.2% deoxycholate, 0.1% SDS, 1% NP40, 150 mM NaCl, 50 mM Tris pH 7.4, 2 mM EDTA) supplemented with protease and phosphatase inhibitors, cleared at 14000×g for 15 minutes at 4° C., and supernatants were quantified by BCA assay (Pierce, 23225). Protein samples (20 μg) were prepared with 1×LDS buffer with 100 mM DTT, ran on NuPAGE 4-12% Bis-tris gels, and transferred onto a […] nitrocellulose membrane (Thermo, 88018). All blots were blocked in 5% milk in TBST for 30 minutes. After incubation of the primary antibody overnight at 4° C. and washed three times with 1×TBST, blots were incubated with LI-COR secondary antibodies for 1-2 hours, washed in 1×TBST thrice, and then imaged via a LI-COR Odyssey instrument (Li-COR, Lincoln, Nebr.).

[3] = system: NRF2 activity in H1299-NQO1-YFP cells; experiment: NRF2 activity reporter IC50 in H1299-NQO1-YFP cells vs NRF2 pathway activators (IncuCyte, YFP/mCherry); details: Table 3, H1299-NQO1-YFP cells
Method: Readings were taken every 2 hours for at least 24 hours. […] Readings were also taken every 2 hours for 96 hours in and IncuCyte S3.
(§1) YFP total intensity (correlating to NRF2 activity) was normalized to NLS-mCherry (cell number) total intensity to give a ratio (YFP/mCherry). Ratios at one time point at least 24 hours post compounds were added were used. These numbers were then plotted in Graphpad Prism to calculate IC50s. […] From three biological replicates, percent confluence was used for proliferation assays to calculate IC50s, calculations performed using Graphpad Prism.

[4] = system: NRF2 mRNA and NRF2 target gene mRNA; experiment: RT-qPCR of NRF2 mRNA and NRF2 downstream targets in KYSE70 cells; details: 24 or 48 hours, PYR 10 μM, analogs 1 μM, MTX and PEM 0.1 μM
Method: (§2) qRT-PCR: Total RNA was extracted using PureLink RNA kit following the manufacturers protocol. Primers for qPCR were designed using the National Center for Biotechnology Information's (NCBI) Primer-BLAST platform. For primer sequences, see Table 2. RNA was quantified using a Nanodrop One (Thermo, Waltham, Mass.), and the reverse transcription reaction was performed using 2 μg of RNA with the iSCRIPT Clear kit with DNAse (Biorad, 170-8891). For the qRT-PCR, PowerUP SYBR Green (Thermo, A25741) was used, and data were analyzed on an AB QuantStudio 6 Flex Real Time PCR machine (Applied Biosystems, Foster City, Calif.). ΔCT values were normalized to housekeeping gene RPL13a and then normalized to DMSO for final ΔΔCT value.

[5] = system: KYSE70 cells; experiment: Proliferation IC50 (percent confluence, IncuCyte) in KYSE70 cells; details: Homo sapiens, KYSE-70, 96 h, read-out: proliferation IC50
Method: as §1, with “IncuCyte and IC50 calculations: […] […] Readings were taken every 2 hours for at least 24 hours. […] Readings were also taken every 2 hours for 96 hours in and IncuCyte S3. YFP total” for “YFP total”

[6] = system: AXIN2 and CK1γ1 mRNA; experiment: qRT-PCR of AXIN2 and CK1γ1 mRNA (not NRF2 target genes) in KYSE70 cells; details: KYSE70, 48 hours; 1 μM 115, 0.1 μM MTX, 0.1 μM PEM
Text: Single experiment shown. AXIN2 and CK1γ1 were done in same experiment, but separated for discussion. Error bars are SD and * represents p-value <0.05.
as §2

[7] = activator CDDO 100 nM, read-out: CDDO 100 nM IC50 μM ± SEM
[8] = activator SULF 2 μM, read-out: SULF 2 μM IC50 μM ± SEM
[9] = average over activators, read-out: Avg IC50
[10] = read-out: PRL295 5 μM IC50 μM ± SEM, activator PRL295 5 μM

| IC50 [3, 7] | IC50 [3, 8] | IC50 [3, 9] | IC50 [3, 10] | SMILES | stabilization of NRF2 by FA alone [1] | NRF2 protein abundance [2] | NRF2 mRNA and NRF2 target gene mRNA [4] | IC50 [5] | AXIN2 and CK1γ1 mRNA [6] |
| --- | --- | --- | --- | --- | --- | --- | --- | --- | --- |
|  |  |  |  | Nc1nc(=O)c2c([nH]1)NCC(CNc1ccc(C(=O)N[C@@H](CCC(=O)O)C(=O)O)cc1)N2C=O (mixture of isomers) [FA, Folinic Acid] | no stabilization of NRF2 |  |  |  |  |
| 1.82 ± 0.085 µM | 1.5 ± 0.0466 µM | 1.7 µM | 1.57 ± 0.008 µM | CC1(C)N=C(N)N=C(N)N1c1ccc(Cl)cc1 [CG, reference compound] |  | decreased | decreased |  |  |
| 0.0008 µM | 0.0358 ± 0.0031 µM | 0.0202 µM | 0.024 ± 0.0024 µM | CN(Cc1cnc2nc(N)nc(N)c2n1)c1ccc(C(=O)N[C@@H](CCC(=O)O)C(=O)O)cc1 [MTX, Methotrexate, reference compound] |  | decreased | decreased | 12.4 nM | decreased AXIN2 and CK1γ1 mRNA |
